Measured values from ChEMBL document CHEMBL5380844, “Discovery of a Novel, Potent, Orally Active, and Safe Inhibitor Targeting Human Mitochondrial RNA Polymerase” (J Med Chem, 2023).
Converted amounts (≈) assume the structure as drawn. The source made the active and inactive calls. The rule behind the calls is not given here.

How the values were obtained:
[1] = AUC (0 to t) in ICR mouse at 10 mg/kg, po measured upto 24 hrs by LC-MS/MS analysis; assay type: ADME, organism-based; design: dose 10 mg/kg, time < 24 hrs, route po; settings: in vivo
[2] = Inhibition of ND1 transcript level in human A2780 cells at 500 nM measured after 12 hrs by RT-qPCR analysis relative to control; assay type: functional
[3] = AUC (0 to infinity) in ICR mouse at 10 mg/kg, po measured upto 24 hrs by LC-MS/MS analysis; assay type: ADME, organism-based; design: time < 24 hrs, dose 10 mg/kg, route po; settings: in vivo
A2780 [4] = assay: Inhibition of colony formation in human A2780 cells assessed as decrease in size of colonies at 10 nM incubated for 14 days by crystal violet staining based analysis; assay type: functional, cell-based; settings: time 14.0 day
A2780 [5] = assay: Induction of mitochondrial morphological changes in human A2780 cells assessed as change in shape of mitochondria measured after 24 hrs by TEM analysis; assay type: functional, cell-based
A2780 [6] = assay: Effect on 18S mRNA level in human A2780 cells by RT-qPCR analysis; assay type: functional, cell-based
A2780 [7] = assay: Induction of apoptosis in human A2780 cells assessed as increase in cleaved PARP cleavage level at upto 500 nM by immunoblot analysis; assay type: functional, cell-based
[8] = Solubility in PBS at pH 7.4; assay type: physicochemical
A2780 [9] = assay: Induction of mitochondrial membrane potential changes in human A2780 cells at upto 500 nM measured after 96 hrs by JC-1 staining based immunofluorescence assay; assay type: functional, cell-based
A2780 [10] = assay: Antitumor activity against human A2780 cells xenografted in BALB/c nude mouse model assessed as reduction in […] level at 100 mg/kg, po by immunoblotting analysis; assay type: functional, organism-based
Cytochrome P450 1A2 = target: T1, Cytochrome P450 1A2 (Homo sapiens, UniProt P05177); assay: Inhibition of CYP1A2 (unknown origin) using phenacetin as substrate in presence of NADPH by LC/MS/MS analysis; assay type: ADME
T1 sequence (P05177 whole entry): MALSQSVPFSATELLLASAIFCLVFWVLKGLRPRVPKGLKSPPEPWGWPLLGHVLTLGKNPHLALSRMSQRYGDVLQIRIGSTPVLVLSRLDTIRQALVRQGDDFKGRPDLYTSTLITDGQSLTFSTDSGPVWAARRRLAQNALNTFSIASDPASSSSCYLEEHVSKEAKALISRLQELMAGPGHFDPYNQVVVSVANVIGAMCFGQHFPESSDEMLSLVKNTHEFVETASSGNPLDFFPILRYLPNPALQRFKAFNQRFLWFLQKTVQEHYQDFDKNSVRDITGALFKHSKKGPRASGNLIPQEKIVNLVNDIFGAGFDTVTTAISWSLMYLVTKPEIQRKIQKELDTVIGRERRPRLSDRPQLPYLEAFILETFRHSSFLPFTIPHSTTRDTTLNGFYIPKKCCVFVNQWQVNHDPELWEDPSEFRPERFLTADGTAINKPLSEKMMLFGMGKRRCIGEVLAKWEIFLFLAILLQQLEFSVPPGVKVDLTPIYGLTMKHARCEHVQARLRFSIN

[11] = Toxicity in Balb/c mouse assessed as effect on kidney at 100 mg/kg by H and E staining based analysis; assay type: organism-based; settings: in vivo
A2780 [12] = assay: Inhibition of MT-ND3 expression in human A2780 cells at 100 nM incubated for 12 hrs by RNA sequencing analysis; assay type: functional, cell-based
A2780 [13] = assay: Induction of autophagy in human A2780 cells assessed as change in MDC labeled fluorescence at upto 500 nM measured after 96 hrs by microscopic analysis; assay type: functional, cell-based
A2780 [14] = assay: Antitumor activity against human A2780 cells xenografted in BALB/c nude mouse model assessed as reduction in NDUFB level at 100 mg/kg, po by immunoblotting analysis; assay type: functional, organism-based
DLD-1 = assay: Antiproliferative activity against human DLD-1 cells incubated for 168 hrs by SRB method; assay type: functional, cell-based; settings: DLD-1, 168 h
A2780 [15] = assay: Downregulation of UQCR level in human A2780 cells by Western blot analysis; assay type: functional, cell-based; settings: dose <= 500.0 nM
A2780 [16] = assay: Effect on cellular senescence in human A2780 cells at 0.05 to 1 uM measured after 96 hrs by beta-galactosidase staining based analysis; assay type: functional, cell-based; settings: dose 0.05-1 µM
A2780 [17] = assay: Induction of apoptosis in human A2780 cells assessed as necrotic cells at 200 nM incubated for 96 hrs by Annexin-V/FITC and PI staining based flow cytometry analysis (reference value: 2.07%); assay type: functional
A2780 [18] = assay: Induction of apoptosis in human A2780 cells assessed as early apoptotic cells at 50 nM incubated for 96 hrs by Annexin-V/FITC and PI staining based flow cytometry analysis (reference value: 14.14%); assay type: functional
A2780 [19] = assay: Inhibition of mitochondrial transcript in human A2780 cells incubated for 12 hrs followed by compound removal and measured after 36 hrs by RT-qPCR analysis; assay type: functional, cell-based
A2780 [20] = assay: Inhibition of MT-ND1 expression in human A2780 cells at 100 nM incubated for 12 hrs by RNA sequencing analysis; assay type: functional, cell-based
A2780 [21] = assay: Effect on SDHB level in human A2780 cells at upto 500 nM by Western blot analysis; assay type: functional, cell-based
A2780 [22] = assay: Induction of cell cycle arrest in human A2780 cells assessed as accumulation of cells at G2 phase at 100 nM measured after 96 hrs by PI staining based flow cytometry analysis (reference value: 4.49%); assay type: functional
A2780 [23] = assay: Inhibition of mitochondrial transcript in human A2780 cells assessed as decrease in CYTB expression by RT-qPCR analysis; assay type: functional, cell-based
A2780 [24] = assay: Antitumor activity against human A2780 cells xenografted in BALB/c nude mouse model assessed as induction of tumor shrinkage 100 mg/kg by H and E staining based immunohistochemical analysis; assay type: functional, organism-based
A2780 [25] = assay: Inhibition of colony formation in human A2780 cells at 500 nM incubated for 14 days by crystal violet staining based analysis; assay type: functional, cell-based; settings: time 14.0 day
A2780 [26] = assay: Induction of apoptosis in human A2780 cells assessed as late apoptotic cells at 100 nM incubated for 96 hrs by Annexin-V/FITC and PI staining based flow cytometry analysis (reference value: 3.79%); assay type: functional
A2780 [27] = assay: Inhibition of MT-CO1 expression in human A2780 cells at 100 nM incubated for 12 hrs by RNA sequencing analysis; assay type: functional, cell-based
A2780 [28] = assay: Antitumor activity against human A2780 cells xenografted in BALB/c nude mouse model assessed as effect on heart 100 mg/kg, po measured after 27 days; assay type: functional, organism-based; settings: time 27.0 day
A2780 [29] = assay: Inhibition of MT-ATP8 expression in human A2780 cells at 100 nM incubated for 12 hrs by RNA sequencing analysis; assay type: functional, cell-based
[30] = Apparent permeability across apical to basolateral side in human Caco-2 cells at 3 uM incubated for 2 hrs by LC-MS/MS analysis; assay type: ADME, cell-based
[31] = Half life in ICR mouse at 1 mg/kg, iv measured upto 24 hrs by LC-MS/MS analysis; assay type: ADME, organism-based; settings: in vivo
[32] = Acute toxicity in Balb/c mouse assessed as effect on liver 100 mg/kg measured after 27 days by H and E staining based analysis; assay type: organism-based; settings: in vivo, 648 h, time 27 day
A2780 [33] = assay: Inhibition of MT-ND4L expression in human A2780 cells at 100 nM incubated for 12 hrs by RNA sequencing analysis; assay type: functional, cell-based

Compound Cc1ccc(-c2cc(=O)oc3cc(O[C@H](C)C(=O)N4CC5CCC(C4)N5C)ccc23)c(C)c1 has an AUC(0-t) at 24 h [1] of 1830 ng·h/mL, an inhibition at 0.5 µM [2] of 15% and an AUC(0-inf) [3] of 1900 ng·h/mL. The inhibition (A2780 [4]) was “Active”, the Activity (A2780 [5]) was “inactive” and the Activity (A2780 [6]) was “inactive”. The Activity (A2780 [7]) was “inactive”, the solubility [8] was 226 µg/mL (≈ 506 µM) and the Activity (A2780 [9]) was “inactive”. The Activity (A2780 [10]) was “Active”, the IC50 (Cytochrome P450 1A2) was greater than 40000 nM and the Activity [11] was “Non-Toxic”. The inhibition (A2780 [12]) was “Active”, the Activity (A2780 [13]) was “inactive” and the Activity (A2780 [14]) was “Active”. For the same compound, the IC50 (DLD-1) was 69 nM, the Activity (A2780 [15]) was “Dose-Dependent Effect” and the Activity (A2780 [16]) was “Active”. For the same compound, the Activity (A2780 [17]) was 4.01%, the Activity (A2780 [18]) was 2.22% and the inhibition (A2780 [19]) was “inactive”. For the same compound, the inhibition (A2780 [20]) was “Active”, the Activity (A2780 [21]) was “inactive” and the Activity (A2780 [22]) was 3.73%. The inhibition (A2780 [23]) was “Active”, the Activity (A2780 [24]) was “Active” and the inhibition (A2780 [25]) was “inactive”. The Activity (A2780 [26]) was 5.11%, the inhibition (A2780 [27]) was “Active” and the Activity (A2780 [28]) was “inactive”. The inhibition (A2780 [29]) was “Active”, the Papp A→B at 2 h, 3 µM [30] was 6.93 ×10⁻⁶ cm/s and the half-life [31] was 3.12 h. The Activity [32] was “Non-Toxic” and the inhibition (A2780 [33]) was “Active”.
